Assay results from the supplement of paper PMC10307832.

Legend:
Assay in all cases: relative viability (nuclei count vs DMSO), 5 days (fraction); higher = more cells survive
[1] = tested on: NCI-H2085
How it was run: (§1)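 Lung cancer cell lines were seeded in 1536-well plates and dosed by pin tool the next day, with either a single drug or a fixed anchor-drug dose combined with five library-drug doses (not always all listed) spaced in √10 steps. Five days later, one step fixed the cells and stained their nuclei (final 0.05% Triton X-100, 1% formaldehyde, 1 ug/ml Hoechst), and nuclei were counted on 4× images. Relative viability is the nuclei count in treated wells divided by the count in vehicle wells, and each value is the median of duplicate plates.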

[2] = tested on: NCI-H2347
How it was run: as §1

[3] = tested on: COR-L23
How it was run: as §1

[4] = tested on: SW 1573
How it was run: as §1

[5] = tested on: HCC-78
How it was run: as §1

[6] = tested on: NCI-H358
How it was run: as §1

[7] = tested on: NCI-H650
How it was run: as §1

[8] = tested on: NCI-H2126
How it was run: as §1

[9] = tested on: UMC-11
How it was run: as §1

[10] = tested on: NCI-H2342
How it was run: as §1

[11] = tested on: LU99A
How it was run: as §1

[12] = tested on: PC-14
How it was run: as §1

[13] = tested on: NCI-H2023
How it was run: as §1

[14] = tested on: LC-2-ad
How it was run: as §1

[15] = tested on: NCI-H1651
How it was run: as §1

[16] = tested on: NCI-H1993
How it was run: as §1

[17] = tested on: HARA
How it was run: as §1

[18] = tested on: HCC-15
How it was run: as §1

[19] = tested on: NCI-H1915
How it was run: as §1

[20] = tested on: NCI-H1355
How it was run: as §1

[21] = tested on: NCI-H838
How it was run: as §1

[22] = tested on: EPLC-272H
How it was run: as §1

**Q.** Which results are given for `O=C(O)c1ccc(-c2c[nH]c3ncc(-c4ccccc4)cc23)cc1C1CCCC1` + Nc1nc2[nH]cc(CCc3ccc(C(=O)N[C@@H](CCC(=O)O)C(=O)O)cc3)c2c(=O)[nH]1 [Pemetrexed] (partner 0.2 µM)?
**A.** relative viability ([1]; first compound 0.04 µM): 0.821; relative viability ([1]; first compound 0.1265 µM): 0.951; relative viability ([1]; first compound 0.4 µM): 0.882; relative viability ([1]; first compound 1.265 µM): 0.654; relative viability ([2]; first compound 0.04 µM): 0.435; relative viability ([2]; first compound 0.1265 µM): 0.453; relative viability ([2]; first compound 0.4 µM): 0.454; relative viability ([2]; first compound 1.265 µM): 0.398; relative viability ([3]; first compound 0.04 µM): 0.191; relative viability ([3]; first compound 0.1265 µM): 0.196; relative viability ([3]; first compound 0.4 µM): 0.194; relative viability ([3]; first compound 1.265 µM): 0.184; relative viability ([4]; first compound 0.04 µM): 0.808; relative viability ([4]; first compound 0.1265 µM): 0.762; relative viability ([4]; first compound 0.4 µM): 0.779; relative viability ([4]; first compound 1.265 µM): 0.63; relative viability ([5]; first compound 0.1265 µM): 0.919; relative viability ([5]; first compound 0.4 µM): 0.881; relative viability ([5]; first compound 1.265 µM): 0.962; relative viability ([6]; first compound 0.04 µM): 0.17; relative viability ([6]; first compound 0.1265 µM): 0.186; relative viability ([6]; first compound 0.4 µM): 0.181; relative viability ([6]; first compound 1.265 µM): 0.148; relative viability ([7]; first compound 0.04 µM): 0.941; relative viability ([7]; first compound 0.1265 µM): 0.975; relative viability ([7]; first compound 0.4 µM): 0.873; relative viability ([7]; first compound 1.265 µM): 0.782; relative viability ([8]; first compound 0.04 µM): 0.741; relative viability ([8]; first compound 0.1265 µM): 0.66; relative viability ([8]; first compound 0.4 µM): 0.707; relative viability ([8]; first compound 1.265 µM): 0.666; relative viability ([9]; first compound 0.04 µM): 0.703; relative viability ([9]; first compound 0.1265 µM): 0.719; relative viability ([9]; first compound 0.4 µM): 0.693; relative viability ([9]; first compound 1.265 µM): 0.653; relative viability ([10]; first compound 0.04 µM): 0.804; relative viability ([10]; first compound 0.1265 µM): 0.816; relative viability ([10]; first compound 0.4 µM): 0.765; relative viability ([10]; first compound 1.265 µM): 0.74; relative viability ([11]; first compound 0.04 µM): 0.166; relative viability ([11]; first compound 0.1265 µM): 0.192; relative viability ([11]; first compound 0.4 µM): 0.187; relative viability ([11]; first compound 1.265 µM): 0.202; relative viability ([12]; first compound 0.04 µM): 0.135; relative viability ([12]; first compound 0.1265 µM): 0.143; relative viability ([12]; first compound 0.4 µM): 0.145; relative viability ([12]; first compound 1.265 µM): 0.125; relative viability ([13]; first compound 0.04 µM): 0.23; relative viability ([13]; first compound 0.1265 µM): 0.271; relative viability ([13]; first compound 0.4 µM): 0.28; relative viability ([13]; first compound 1.265 µM): 0.237; relative viability ([14]; first compound 0.04 µM): 0.302; relative viability ([14]; first compound 0.1265 µM): 0.272; relative viability ([14]; first compound 0.4 µM): 0.278; relative viability ([14]; first compound 1.265 µM): 0.261; relative viability ([15]; first compound 0.04 µM): 0.482; relative viability ([15]; first compound 0.1265 µM): 0.603; relative viability ([15]; first compound 0.4 µM): 0.641; relative viability ([15]; first compound 1.265 µM): 0.527; relative viability ([16]; first compound 0.04 µM): 0.603; relative viability ([16]; first compound 0.1265 µM): 0.622; relative viability ([16]; first compound 0.4 µM): 0.617; relative viability ([16]; first compound 1.265 µM): 0.59; relative viability ([17]; first compound 0.04 µM): 0.23; relative viability ([17]; first compound 0.1265 µM): 0.237; relative viability ([17]; first compound 0.4 µM): 0.222; relative viability ([17]; first compound 1.265 µM): 0.252; relative viability ([18]; first compound 0.04 µM): 0.206; relative viability ([18]; first compound 0.1265 µM): 0.227; relative viability ([18]; first compound 0.4 µM): 0.215; relative viability ([18]; first compound 1.265 µM): 0.188; relative viability ([19]; first compound 0.04 µM): 0.493; relative viability ([19]; first compound 0.1265 µM): 0.454; relative viability ([19]; first compound 0.4 µM): 0.481; relative viability ([19]; first compound 1.265 µM): 0.448; relative viability ([20]; first compound 0.04 µM): 0.991; relative viability ([20]; first compound 0.1265 µM): 1.13; relative viability ([20]; first compound 0.4 µM): 1.12; relative viability ([20]; first compound 1.265 µM): 0.756; relative viability ([21]; first compound 0.04 µM): 0.25; relative viability ([21]; first compound 0.1265 µM): 0.265; relative viability ([21]; first compound 0.4 µM): 0.253; relative viability ([21]; first compound 1.265 µM): 0.227; relative viability ([22]; first compound 0.04 µM): 0.369; relative viability ([22]; first compound 0.1265 µM): 0.336; relative viability ([22]; first compound 0.4 µM): 0.279; relative viability ([22]; first compound 1.265 µM): 0.251
